{"source": "ChEMBL document CHEMBL5723035", "about": "“Affinity Biochemical Literature for EUbOPEN Chemogenomic Library” (2024)", "key": {"[1]": {"molecular_target": "T1, Chromobox protein homolog 2 (Homo sapiens, UniProt Q14781)", "T1 sequence (Q14781 whole entry)": "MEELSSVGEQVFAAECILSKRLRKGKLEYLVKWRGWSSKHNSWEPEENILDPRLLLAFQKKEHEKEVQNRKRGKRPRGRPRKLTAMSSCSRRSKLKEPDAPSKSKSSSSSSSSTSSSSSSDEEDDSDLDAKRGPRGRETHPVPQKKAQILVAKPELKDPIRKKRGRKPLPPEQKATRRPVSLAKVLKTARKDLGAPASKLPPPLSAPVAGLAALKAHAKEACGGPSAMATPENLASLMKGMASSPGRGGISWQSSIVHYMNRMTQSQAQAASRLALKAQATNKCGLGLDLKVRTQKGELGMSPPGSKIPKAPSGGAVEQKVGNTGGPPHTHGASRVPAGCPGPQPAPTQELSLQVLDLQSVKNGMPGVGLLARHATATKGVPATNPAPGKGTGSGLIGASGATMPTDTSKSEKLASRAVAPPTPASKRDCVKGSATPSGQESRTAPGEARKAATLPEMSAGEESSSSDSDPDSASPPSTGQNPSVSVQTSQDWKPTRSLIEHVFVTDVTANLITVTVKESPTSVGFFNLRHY", "assay": "Affinity Biochemical interaction: (thermal shift assay (non-derivatised)) EUB0002728a CBX2", "design": "mode of action Inhibitor, recommended concentration 1 uM"}, "[2]": {"molecular_target": "T1, Chromobox protein homolog 2", "assay": "Affinity Biochemical interaction: (Fluorescence polarisation (fluorescein conjugated)) EUB0002728a CBX2", "assay_type": "functional", "design": "mode of action Inhibitor, recommended concentration 1 uM"}, "[3]": {"molecular_target": "cGMP-specific 3',5'-cyclic phosphodiesterase (Homo sapiens, UniProt O76074)", "assay": "Affinity Biochemical interaction: (inhibition of enzyme activity in cleaving radiolabelled substrate [3H]cGMP) EUB0002742aCl PDE5A", "assay_type": "functional", "design": "mode of action Inhibitor, recommended concentration 1 uM"}, "Caspase-2": {"molecular_target": "Caspase-2 (Homo sapiens, UniProt P42575)", "sequence (P42575 170-325 limits assumed)": "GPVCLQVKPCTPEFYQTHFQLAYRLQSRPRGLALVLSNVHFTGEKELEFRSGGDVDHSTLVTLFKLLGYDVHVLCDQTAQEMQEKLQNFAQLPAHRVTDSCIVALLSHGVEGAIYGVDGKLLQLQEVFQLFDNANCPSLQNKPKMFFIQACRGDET", "sequence (P42575 334-452 limits assumed)": "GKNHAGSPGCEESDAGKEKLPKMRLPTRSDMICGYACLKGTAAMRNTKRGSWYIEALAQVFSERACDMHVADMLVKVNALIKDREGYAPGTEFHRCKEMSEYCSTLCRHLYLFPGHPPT", "assay": "Affinity Biochemical interaction: (enzymatic assay (cleavage of fluorogenic substrate)) EUB0002782a CASP2", "assay_type": "functional", "design": "mode of action Inhibitor, recommended concentration 1 uM"}, "[4]": {"molecular_target": "Ubiquitin carboxyl-terminal hydrolase 1 (Homo sapiens, UniProt O94782)", "sequence (O94782 whole entry)": "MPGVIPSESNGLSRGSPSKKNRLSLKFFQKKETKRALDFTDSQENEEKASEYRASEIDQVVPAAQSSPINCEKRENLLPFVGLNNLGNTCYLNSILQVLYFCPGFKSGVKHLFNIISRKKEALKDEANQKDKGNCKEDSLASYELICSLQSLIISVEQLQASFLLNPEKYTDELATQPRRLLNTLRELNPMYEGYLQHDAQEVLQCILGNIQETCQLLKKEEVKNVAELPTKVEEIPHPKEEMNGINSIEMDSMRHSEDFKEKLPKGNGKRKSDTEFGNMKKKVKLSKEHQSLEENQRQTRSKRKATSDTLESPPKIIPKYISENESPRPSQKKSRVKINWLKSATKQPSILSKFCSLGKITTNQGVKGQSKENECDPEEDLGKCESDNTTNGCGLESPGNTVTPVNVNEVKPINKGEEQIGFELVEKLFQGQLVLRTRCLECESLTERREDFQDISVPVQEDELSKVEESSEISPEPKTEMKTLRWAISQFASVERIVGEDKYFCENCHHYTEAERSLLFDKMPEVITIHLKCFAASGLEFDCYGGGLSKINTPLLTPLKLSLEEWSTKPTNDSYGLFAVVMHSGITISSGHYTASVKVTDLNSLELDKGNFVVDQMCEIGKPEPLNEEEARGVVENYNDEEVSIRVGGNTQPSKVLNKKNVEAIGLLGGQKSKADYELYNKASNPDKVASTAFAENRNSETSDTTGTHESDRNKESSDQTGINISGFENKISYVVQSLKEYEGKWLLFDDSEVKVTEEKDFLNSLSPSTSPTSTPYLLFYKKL", "assay": "Affinity Biochemical interaction: (Ubiquitin-rhodamine 110 Assay for USP1 activity) EUB0002793a USP1", "assay_type": "functional", "design": "mode of action Inhibitor, recommended concentration 1 uM"}, "[5]": {"molecular_target": "Ubiquitin carboxyl-terminal hydrolase 30 (Homo sapiens, UniProt Q70CQ3)"}, "[6]": {"molecular_target": "Poly [ADP-ribose] polymerase 2 (Homo sapiens, UniProt Q9UGN5)", "sequence (Q9UGN5 whole entry)": "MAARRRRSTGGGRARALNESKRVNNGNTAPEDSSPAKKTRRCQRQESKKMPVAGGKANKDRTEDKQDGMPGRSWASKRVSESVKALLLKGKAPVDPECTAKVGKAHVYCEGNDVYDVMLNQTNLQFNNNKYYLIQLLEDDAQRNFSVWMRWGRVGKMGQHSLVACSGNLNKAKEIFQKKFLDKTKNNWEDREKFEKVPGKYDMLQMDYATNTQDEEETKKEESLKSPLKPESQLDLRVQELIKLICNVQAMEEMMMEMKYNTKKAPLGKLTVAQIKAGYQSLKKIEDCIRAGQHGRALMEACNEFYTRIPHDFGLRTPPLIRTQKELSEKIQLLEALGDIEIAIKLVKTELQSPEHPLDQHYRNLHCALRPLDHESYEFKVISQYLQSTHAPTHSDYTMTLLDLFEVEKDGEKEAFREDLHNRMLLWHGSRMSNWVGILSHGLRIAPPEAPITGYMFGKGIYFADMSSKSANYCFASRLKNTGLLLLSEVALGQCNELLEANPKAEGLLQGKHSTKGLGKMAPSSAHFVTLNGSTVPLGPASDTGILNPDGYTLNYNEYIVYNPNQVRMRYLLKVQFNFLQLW", "assay": "Affinity Biochemical interaction: (inhibition of enzyme activity) EUB0002763a PARP2", "assay_type": "functional", "design": "mode of action Inhibitor, recommended concentration 1 uM"}, "[7]": {"molecular_target": "Poly [ADP-ribose] polymerase 1 (Homo sapiens, UniProt P09874)", "assay": "Affinity Biochemical interaction: (inhibition of enzyme activity) EUB0002763a PARP1", "assay_type": "functional", "design": "mode of action Inhibitor, recommended concentration 1 uM"}, "[8]": {"molecular_target": "T2, Calpain-1 catalytic subunit (Homo sapiens, UniProt P07384)", "T2 sequence (P07384 whole entry)": "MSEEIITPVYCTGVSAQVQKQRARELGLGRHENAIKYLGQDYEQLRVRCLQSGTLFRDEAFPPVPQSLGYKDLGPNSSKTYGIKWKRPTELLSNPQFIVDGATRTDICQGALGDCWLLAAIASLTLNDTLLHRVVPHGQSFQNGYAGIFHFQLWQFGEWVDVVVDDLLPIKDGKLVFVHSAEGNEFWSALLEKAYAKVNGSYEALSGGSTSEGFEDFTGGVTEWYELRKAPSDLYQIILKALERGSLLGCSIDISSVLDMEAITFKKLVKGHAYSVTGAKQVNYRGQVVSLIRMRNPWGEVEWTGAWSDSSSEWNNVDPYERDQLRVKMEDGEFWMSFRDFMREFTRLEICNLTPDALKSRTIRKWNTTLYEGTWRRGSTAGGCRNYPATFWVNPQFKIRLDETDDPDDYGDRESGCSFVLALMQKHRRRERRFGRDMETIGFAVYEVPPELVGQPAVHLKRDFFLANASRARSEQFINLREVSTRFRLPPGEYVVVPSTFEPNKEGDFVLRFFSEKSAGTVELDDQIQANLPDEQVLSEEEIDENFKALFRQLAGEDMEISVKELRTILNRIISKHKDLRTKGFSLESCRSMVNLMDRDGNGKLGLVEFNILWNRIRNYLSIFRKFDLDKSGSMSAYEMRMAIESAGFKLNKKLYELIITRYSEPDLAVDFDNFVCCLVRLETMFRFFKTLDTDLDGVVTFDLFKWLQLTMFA", "assay": "Affinity Biochemical interaction: (inhibition of enzyme activity using a fluorogenic substrate) EUB0002786aAD CAPN1", "assay_type": "functional", "design": "mode of action Inhibitor, recommended concentration 1 uM"}, "[9]": {"molecular_target": "Calpain-2 catalytic subunit (Homo sapiens, UniProt P17655)", "sequence (P17655 whole entry)": "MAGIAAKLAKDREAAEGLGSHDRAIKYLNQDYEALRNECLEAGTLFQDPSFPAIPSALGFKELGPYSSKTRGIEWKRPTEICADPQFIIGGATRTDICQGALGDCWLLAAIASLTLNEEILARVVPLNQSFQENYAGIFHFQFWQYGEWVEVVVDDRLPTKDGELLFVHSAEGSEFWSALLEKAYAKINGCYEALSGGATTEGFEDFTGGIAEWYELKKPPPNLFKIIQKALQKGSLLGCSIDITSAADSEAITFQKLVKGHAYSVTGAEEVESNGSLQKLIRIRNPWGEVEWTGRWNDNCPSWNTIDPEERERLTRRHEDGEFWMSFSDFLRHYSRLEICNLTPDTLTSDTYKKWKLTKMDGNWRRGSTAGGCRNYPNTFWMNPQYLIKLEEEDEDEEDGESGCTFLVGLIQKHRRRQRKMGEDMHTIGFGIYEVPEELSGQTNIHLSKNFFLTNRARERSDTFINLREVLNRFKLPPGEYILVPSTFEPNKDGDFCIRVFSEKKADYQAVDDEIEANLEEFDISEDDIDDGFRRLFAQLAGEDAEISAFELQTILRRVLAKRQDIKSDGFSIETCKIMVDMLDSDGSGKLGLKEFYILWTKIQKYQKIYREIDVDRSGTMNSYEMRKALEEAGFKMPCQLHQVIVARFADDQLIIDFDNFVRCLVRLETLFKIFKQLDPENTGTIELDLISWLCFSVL", "assay": "Affinity Biochemical interaction: (inhibition of casein degradation, monitored by measuring generation of trichloroacetic acid-soluble peptides) EUB0002786aAD CAPN2", "assay_type": "functional", "design": "mode of action Inhibitor, recommended concentration 1 uM"}, "[10]": {"molecular_target": "T2, Calpain-1 catalytic subunit", "assay": "Affinity Biochemical interaction: (inhibition of casein degradation, monitored by measuring generation of trichloroacetic acid-soluble peptides) EUB0002786aAD CAPN1", "assay_type": "functional", "design": "mode of action Inhibitor, recommended concentration 1 uM"}, "[11]": {"molecular_target": "Ubiquitin carboxyl-terminal hydrolase 7 (Homo sapiens, UniProt Q93009)", "assay": "Affinity Biochemical interaction: (inhibition of enzyme activity in cleaving fluorogenic ubiquitin-rhodamine substrate) EUB0002755a USP7", "assay_type": "functional", "design": "mode of action Inhibitor, recommended concentration 1 uM"}, "Menin": {"molecular_target": "Menin (Homo sapiens, UniProt O00255)", "sequence (O00255 whole entry)": "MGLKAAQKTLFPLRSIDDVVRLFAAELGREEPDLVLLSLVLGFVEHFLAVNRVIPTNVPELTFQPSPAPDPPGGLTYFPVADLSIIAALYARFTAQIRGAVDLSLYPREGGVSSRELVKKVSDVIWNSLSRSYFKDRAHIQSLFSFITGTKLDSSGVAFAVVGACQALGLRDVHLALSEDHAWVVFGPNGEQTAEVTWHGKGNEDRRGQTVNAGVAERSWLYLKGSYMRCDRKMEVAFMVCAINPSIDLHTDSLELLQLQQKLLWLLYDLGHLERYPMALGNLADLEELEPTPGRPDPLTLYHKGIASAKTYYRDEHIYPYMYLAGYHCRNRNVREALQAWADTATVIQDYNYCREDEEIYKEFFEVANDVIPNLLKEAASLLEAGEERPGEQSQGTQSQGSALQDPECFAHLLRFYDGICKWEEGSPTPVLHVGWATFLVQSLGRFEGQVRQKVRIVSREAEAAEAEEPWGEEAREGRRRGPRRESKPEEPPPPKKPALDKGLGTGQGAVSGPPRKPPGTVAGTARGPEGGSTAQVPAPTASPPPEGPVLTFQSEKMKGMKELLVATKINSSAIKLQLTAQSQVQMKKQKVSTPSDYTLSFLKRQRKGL", "assay": "Affinity Biochemical interaction: (Enzymatic assay) EUB0002767a MEN1", "assay_type": "functional", "design": "mode of action Inhibitor, recommended concentration 1 uM"}, "Dipeptidyl peptidase 1": {"molecular_target": "Dipeptidyl peptidase 1 (Homo sapiens, UniProt P53634)", "sequence (P53634 25-134 limits assumed)": "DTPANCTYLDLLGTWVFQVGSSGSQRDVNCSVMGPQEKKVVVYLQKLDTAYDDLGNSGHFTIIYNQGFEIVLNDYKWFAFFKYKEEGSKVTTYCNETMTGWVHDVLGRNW", "sequence (P53634 231-394 limits assumed)": "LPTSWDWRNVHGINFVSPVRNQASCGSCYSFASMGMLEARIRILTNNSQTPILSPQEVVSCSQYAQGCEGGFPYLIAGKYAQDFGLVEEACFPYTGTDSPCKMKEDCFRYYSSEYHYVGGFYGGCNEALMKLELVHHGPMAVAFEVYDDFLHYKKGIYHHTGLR", "sequence (P53634 395-463 limits assumed)": "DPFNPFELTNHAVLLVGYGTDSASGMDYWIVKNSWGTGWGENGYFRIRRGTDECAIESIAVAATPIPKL", "assay": "Affinity Biochemical interaction: (No data available) EUB0002789aCl CTSC", "design": "mode of action Inhibitor, recommended concentration 1 uM"}, "Cathepsin S": {"molecular_target": "Cathepsin S (Homo sapiens, UniProt P25774)", "sequence (P25774 whole entry)": "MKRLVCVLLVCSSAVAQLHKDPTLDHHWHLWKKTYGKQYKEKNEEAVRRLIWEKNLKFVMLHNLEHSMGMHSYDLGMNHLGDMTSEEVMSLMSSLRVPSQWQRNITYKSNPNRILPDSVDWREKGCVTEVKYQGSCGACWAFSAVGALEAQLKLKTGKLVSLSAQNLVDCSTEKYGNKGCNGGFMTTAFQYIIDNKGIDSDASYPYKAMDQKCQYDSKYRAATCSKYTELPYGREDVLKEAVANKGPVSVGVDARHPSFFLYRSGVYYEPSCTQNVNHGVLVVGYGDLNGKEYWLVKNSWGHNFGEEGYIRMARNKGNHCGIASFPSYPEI", "assay": "Affinity Biochemical interaction: (inhibition of enzyme activity in cleaving fluorogenic substrate) EUB0002791a CTSS", "assay_type": "functional", "design": "mode of action Inhibitor, recommended concentration 1 uM"}, "[12]": {"molecular_target": "WD repeat-containing protein 5 (Homo sapiens, UniProt P61964)", "assay": "Affinity Biochemical interaction: (Time-resolved fluorescence energy transfer (TR-FRET) assay to determine the competitive binding affinity (Ki) against the MLL1-derived FITC-peptide probe) EUB0002769a WDR5", "assay_type": "functional", "design": "mode of action Inhibitor, recommended concentration 1 uM"}, "[13]": {"molecular_target": "Histone-lysine N-methyltransferase 2A (Homo sapiens, UniProt Q03164)", "assay": "Affinity Biochemical interaction: (H3K4 HMT inhibition assay to measure the effect on MLL1-mediated HMT activity) EUB0002769a MLL", "assay_type": "functional", "design": "mode of action Inhibitor, recommended concentration 1 uM"}}, "note": "Non-standard residues stand in square brackets, D forms with d. Residues, ends and D or L forms follow the SMILES beside them. *: point of attachment. Tyr(3-Cl) = N[C@@H](Cc1ccc(O)c(Cl)c1)C(=O)O; Benzoyl(3,5-Cl2) = O=C(c1cc(Cl)cc(Cl)c1)*; Lys(Et2) = CCN(CC)CCCC[C@H](N)C(=O)O; Gly(cPent) = N[C@H](C(=O)O)C1CCCC1; Cbz = O=C(OCc1ccccc1)*; NH(propargyl) = C#CCN*; CH2F = FC*"}
{"smiles": "C#CCNC(=O)[C@H](CO)NC(=O)[C@H](CCCCN(CC)CC)NC(=O)[C@@H](NC(=O)[C@@H](NC(=O)[C@H](Cc1ccc(O)c(Cl)c1)NC(=O)c1cc(Cl)cc(Cl)c1)C1CCCC1)[C@@H](C)CC", "note": "({Benzoyl(3,5-Cl2)}-[Tyr(3-Cl)][Gly(cPent)]I[Lys(Et2)]S-{NH(propargyl)})", "values": [{"measurement": "Kd", "setting": "[1]", "value": 110, "unit": "nM"}, {"measurement": "Kd", "setting": "[2]", "value": 80, "unit": "nM"}]}
{"smiles": "CCn1c(=S)[nH]c2cc3c(NCc4ccccc4N4CCC(CO)CC4)ncnc3cc21", "values": [{"measurement": "IC50", "setting": "[3]", "value": 0.074, "unit": "nM"}]}
{"smiles": "COC(=O)CC(NC(=O)C(C)NC(=O)C(NC(=O)C(CC(=O)OC)NC(=O)C(NC(=O)OCc1ccccc1)C(C)C)C(C)C)C(=O)CF", "note": "(configuration not stated) (Cbz-VD(OMe)VAD(OMe)-CH2F; configuration not given here)", "values": [{"measurement": "IC50", "setting": "Caspase-2", "value": "~80", "unit": "nM"}]}
{"smiles": "CC(C)c1c(F)cccc1-c1ncc2[nH]c(=O)n(Cc3ccc(-c4nc(C(F)(F)F)cn4C)cc3)c2n1", "values": [{"measurement": "IC50", "setting": "[4]", "value": "< 50", "unit": "nM"}]}
{"smiles": "COc1ccc(-c2csc(N(C)C(=O)[C@@H]3CCCN3C#N)n2)nc1C#N", "values": [{"measurement": "IC50", "setting": "[5]", "value": "< 100", "unit": "nM"}]}
{"smiles": "O=C(c1cc(Cc2n[nH]c(=O)c3ccccc23)ccc1F)N1CC(CNC2CC2)C1", "values": [{"measurement": "IC50", "setting": "[6]", "value": 1, "unit": "nM"}, {"measurement": "IC50", "setting": "[7]", "value": 1.4, "unit": "nM"}]}
{"smiles": "CC[C@H](C)[C@H](NC(=O)[C@H](Cc1ccc(O)cc1)NC(=O)[C@@H](NC(=O)[C@H](CO)NC(=O)[C@H](CO)NC(=O)[C@H](CCSC)NC(=O)[C@@H]1CCCN1C(=O)[C@H](CC(=O)O)NC(C)=O)[C@@H](C)O)C(=O)N[C@@H](CCC(=O)O)C(=O)N[C@@H](CCC(=O)O)C(=O)N[C@@H](CC(C)C)C(=O)NCC(=O)N[C@@H](CCCCN)C(=O)N[C@@H](CCCNC(=N)N)C(=O)N[C@@H](CCC(=O)O)C(=O)N[C@H](C(=O)N[C@H](C(=O)N[C@H](C(=O)N1CCC[C@H]1C(=O)N1CCC[C@H]1C(=O)N[C@@H](CCCCN)C(=O)N[C@@H](Cc1ccc(O)cc1)C(=O)N[C@@H](CCCNC(=N)N)C(=O)N[C@@H](CCC(=O)O)C(=O)N[C@@H](CC(C)C)C(=O)N[C@@H](CC(C)C)C(=O)N[C@@H](C)C(N)=O)[C@@H](C)CC)[C@@H](C)O)C(C)C", "note": "(Ac-DPMSSTYIEELGKREVTIPPKYRELLA-NH2)", "values": [{"measurement": "Ki", "setting": "[8]", "value": 0.2, "unit": "nM"}, {"measurement": "IC50", "setting": "[9]", "value": "~30", "unit": "nM"}, {"measurement": "IC50", "setting": "[10]", "value": "~60", "unit": "nM"}]}
{"smiles": "Cc1cc(Cl)cc(-c2c3sc(CN4C(=O)C5C(C4=O)C5(C)C)cc3nn2C)c1OC1CCNCC1", "note": "(configuration not stated)", "values": [{"measurement": "IC50", "setting": "[11]", "value": 13.4, "unit": "nM"}]}
{"smiles": "CC(C)N(C(=O)c1cc(F)ccc1Oc1cncnc1N1CC2(CCN(C[C@H]3CC[C@H](NS(C)(=O)=O)CC3)CC2)C1)C(C)C", "values": [{"measurement": "Ki", "setting": "Menin", "value": 0.104, "unit": "nM"}]}
{"smiles": "CC[C@@H](/C=C/C(=O)N1CCc2ccccc21)NC(=O)C1(N)CCOCC1", "values": [{"measurement": "IC50", "setting": "Dipeptidyl peptidase 1", "value": "< 0.43", "unit": "nM"}]}
{"smiles": "CC(F)(F)C(=O)N[C@@H](CC1(F)CCCC1)C(=O)NC1(C(=O)C(N)=O)CCC1", "values": [{"measurement": "Ki", "setting": "Cathepsin S", "value": 2.1, "unit": "nM"}]}
{"smiles": "COc1cc(O)cc(CN2CCc3c(cc(Cn4ccn(C)c4=N)cc3-c3ccc(F)cc3C)C2=O)c1", "values": [{"measurement": "Kd", "setting": "[12]", "value": "< 0.02", "unit": "nM"}, {"measurement": "IC50", "setting": "[13]", "value": 2.2, "unit": "nM"}]}
